In brackets after ≈: the same amount, converted by molar mass.
How the values were obtained:
Assay type in all cases: functional
Staphylococcus aureus [1] = experiment: Antibacterial activity against methicilin-resistant Staphylococcus aureus N315 assessed as inhibition of bacterial growth incubated for 18 hrs by two fold broth microdilution assay
Enterococcus faecalis = experiment: Antibacterial activity against Enterococcus faecalis assessed as inhibition of bacterial growth incubated for 18 hrs by two fold broth microdilution assay
Staphylococcus aureus [2] = experiment: Antibacterial activity against Staphylococcus aureus assessed as inhibition of bacterial growth incubated for 18 hrs by two fold broth microdilution assay
Staphylococcus aureus [3] = experiment: Antibacterial activity against Staphylococcus aureus ATCC 25923 assessed as inhibition of bacterial growth incubated for 18 hrs by two fold broth microdilution assay
Staphylococcus aureus [4] = experiment: Antibacterial activity against Staphylococcus aureus ATCC 29213 assessed as inhibition of bacterial growth incubated for 18 hrs by two fold broth microdilution assay
Klebsiella pneumoniae = experiment: Antibacterial activity against Klebsiella pneumoniae assessed as inhibition of bacterial growth incubated for 18 hrs by two fold broth microdilution assay
Escherichia coli [5] = experiment: Antibacterial activity against Escherichia coli assessed as inhibition of bacterial growth incubated for 18 hrs by two fold broth microdilution assay
Pseudomonas aeruginosa [6] = experiment: Antibacterial activity against Pseudomonas aeruginosa assessed as inhibition of bacterial growth incubated for 18 hrs by two fold broth microdilution assay
Acinetobacter baumannii = experiment: Antibacterial activity against Acinetobacter baumannii assessed as inhibition of bacterial growth incubated for 18 hrs by two fold broth microdilution assay
Pseudomonas aeruginosa [7] = experiment: Antibacterial activity against Pseudomonas aeruginosa ATCC 27853 assessed as inhibition of bacterial growth incubated for 18 hrs by two fold broth microdilution assay
Escherichia coli [8] = experiment: Antibacterial activity against Escherichia coli ATCC 25922 assessed as inhibition of bacterial growth incubated for 18 hrs by two fold broth microdilution assay

| SMILES | MIC (Staphylococcus aureus [1]) [µg/mL] | MIC (Enterococcus faecalis) [µg/mL] | MIC (Staphylococcus aureus [2]) [µg/mL] | MIC (Staphylococcus aureus [3]) [µg/mL] | MIC (Staphylococcus aureus [4]) [µg/mL] | MIC (Klebsiella pneumoniae) [µg/mL] | MIC (Escherichia coli [5]) [µg/mL] | MIC (Pseudomonas aeruginosa [6]) [µg/mL] | MIC (Acinetobacter baumannii) [µg/mL] | MIC (Pseudomonas aeruginosa [7]) [µg/mL] | MIC (Escherichia coli [8]) [µg/mL] |
| --- | --- | --- | --- | --- | --- | --- | --- | --- | --- | --- | --- |
| CC(=O)Nc1ccc(S(=O)(=O)/C(C#N)=C/c2cn(CC(=O)OC(C)(C)C)c3ccccc23)cc1 | 256 (≈ 534 µM) | 128 (≈ 267 µM) | 128 (≈ 267 µM) | 128 (≈ 267 µM) | 16 (≈ 33.4 µM) | 128 (≈ 267 µM) | 256 (≈ 534 µM) | 128 (≈ 267 µM) | 128 (≈ 267 µM) | 128 (≈ 267 µM) | 256 (≈ 534 µM) |
| CCCCCCCCn1cc(/C=C(\C#N)S(=O)(=O)c2ccc(NC(C)=O)cc2)c2ccccc21 | 256 (≈ 536 µM) | 16 (≈ 33.5 µM) | 8 (≈ 16.7 µM) | 4 (≈ 8.37 µM) | 16 (≈ 33.5 µM) | 4 (≈ 8.37 µM) | 256 (≈ 536 µM) | 64 (≈ 134 µM) | 8 (≈ 16.7 µM) | 16 (≈ 33.5 µM) | 32 (≈ 67 µM) |
| CC(=O)Nc1ccc(S(=O)(=O)/C(C#N)=C/c2cn(C(=O)OC(C)(C)C)c3ccccc23)cc1 | 32 (≈ 68.7 µM) | 128 (≈ 275 µM) | 128 (≈ 275 µM) | 128 (≈ 275 µM) | 2 (≈ 4.3 µM) | 128 (≈ 275 µM) | 128 (≈ 275 µM) | 128 (≈ 275 µM) | 64 (≈ 137 µM) | 128 (≈ 275 µM) | 128 (≈ 275 µM) |
| Cc1cccc2c(/C=C(\C#N)S(=O)(=O)c3ccc(N)cc3)c[nH]c12 | 128 (≈ 379 µM) | 256 (≈ 759 µM) | 256 (≈ 759 µM) | 128 (≈ 379 µM) | 32 (≈ 94.8 µM) | 4 (≈ 11.9 µM) | 64 (≈ 190 µM) | 64 (≈ 190 µM) | 4 (≈ 11.9 µM) | 64 (≈ 190 µM) | 4 (≈ 11.9 µM) |
| CCn1cc(/C=C(\C#N)S(=O)(=O)c2ccc(NC(C)=O)cc2)c2ccccc21 | 64 (≈ 163 µM) | 16 (≈ 40.7 µM) | 128 (≈ 325 µM) | 4 (≈ 10.2 µM) | 4 (≈ 10.2 µM) | 32 (≈ 81.3 µM) | 128 (≈ 325 µM) | 64 (≈ 163 µM) | 64 (≈ 163 µM) | 8 (≈ 20.3 µM) | 128 (≈ 325 µM) |
| CC(=O)Nc1ccc(S(=O)(=O)/C(C#N)=C/c2c[nH]c3cc(F)ccc23)cc1 | 64 (≈ 167 µM) | 32 (≈ 83.5 µM) | 32 (≈ 83.5 µM) | 128 (≈ 334 µM) | 32 (≈ 83.5 µM) | 128 (≈ 334 µM) | 128 (≈ 334 µM) | 64 (≈ 167 µM) | 16 (≈ 41.7 µM) | 8 (≈ 20.9 µM) | 8 (≈ 20.9 µM) |
| CC(=O)Nc1ccc(S(=O)(=O)/C(C#N)=C/c2cn(CC(=O)N3CCCCC3)c3ccccc23)cc1 | 128 (≈ 261 µM) | 128 (≈ 261 µM) | 256 (≈ 522 µM) | 2 (≈ 4.08 µM) | 128 (≈ 261 µM) | 64 (≈ 130 µM) | 128 (≈ 261 µM) | 8 (≈ 16.3 µM) | 64 (≈ 130 µM) | 256 (≈ 522 µM) | 256 (≈ 522 µM) |
| CCN(CC)C(=O)Cn1cc(/C=C(\C#N)S(=O)(=O)c2ccc(NC(C)=O)cc2)c2ccccc21 | 128 (≈ 267 µM) | 128 (≈ 267 µM) | 256 (≈ 535 µM) | 8 (≈ 16.7 µM) | 2 (≈ 4.18 µM) | 64 (≈ 134 µM) | 32 (≈ 66.9 µM) | 32 (≈ 66.9 µM) | 128 (≈ 267 µM) | 256 (≈ 535 µM) | 128 (≈ 267 µM) |
| CCCCCCCCn1cc(/C=C(\C#N)S(=O)(=O)c2ccc(N)cc2)c2ccccc21 | 256 (≈ 588 µM) | 32 (≈ 73.5 µM) | 128 (≈ 294 µM) | 32 (≈ 73.5 µM) | 16 (≈ 36.7 µM) | 4 (≈ 9.18 µM) | 128 (≈ 294 µM) | 64 (≈ 147 µM) | 32 (≈ 73.5 µM) | 32 (≈ 73.5 µM) | 64 (≈ 147 µM) |
| N#C/C(=C\c1cn(Cc2ccc(Cl)cc2Cl)c2ccccc12)S(=O)(=O)c1ccc(N)cc1 | 256 (≈ 531 µM) | 128 (≈ 265 µM) | 256 (≈ 531 µM) | 32 (≈ 66.3 µM) | 64 (≈ 133 µM) | 4 (≈ 8.29 µM) | 256 (≈ 531 µM) | 64 (≈ 133 µM) | 16 (≈ 33.2 µM) | 32 (≈ 66.3 µM) | 64 (≈ 133 µM) |

Source: ChEMBL document CHEMBL5625248, “Identification of unique indolylcyanoethylenyl sulfonylanilines as novel structural scaffolds of potential antibacterial agents” (Eur J Med Chem, 2023)
